Like-named read-outs stand apart in the source and are kept apart here.
Columns and labels:
[1] = test system: dialysate serotonin in the nucleus accumbens; assay: In vivo microdialysis, dialysate serotonin; details: awake freely moving rat; for [serotonin] ED75 (footnote 1): footnote 1: ED75 instead of ED150; for ED150: p.o. or i.p. (italic)
Description: (§1) Microdialysis allows an insight into changes in neurotransmitters and their metabolites in the brain extracellular space in discrete brain regions in awake freely moving animals. […] The in vivo effects of the (mixtures of) compounds of the invention on dopamine, serotonin and noradrenalin levels were determined by microdialysis according to the protocol given below:
(§2) Dopamine and Serotonin Measurements by In Vivo Microdialysis
(§3) Surgery. […] Antibacterial agents and analgesics were administered prior to (Baytril (150 μl/rat i.m.)) and after (Temgesic (0.005-0.01 mg/kg i.m. non-diluted/rat)) surgery. […] In other animals, the skull is exposed and a 1 mm bore-hole is drilled through the bone above the prefrontal cortex (co-ordinates from bregma (mm): anterior-posterior +3.2, mediolateral 0.6 and dorsoventral −1.5 at a 0° angle (from dura)) in those animals where determination of dialysate noradrenaline levels is required. Smaller bore holes are made and three screws are inserted within the skull. The intracerebral guide cannula (CMA, Carnegie) is lowered through the hole until the tip is immediately above the nucleus accumbens or prefrontal cortex. The guide together with the screws are cemented onto the bone with dental cement and the surrounding skin sutured. Animals are allowed to recover at least six days prior to microdialysis experimentation.
(§4) Microdialysis experimentation. On the day of the experiment microdialysis probes (CMA 12, 0.5 mm outer diameter, Stockholm, Sweden) are inserted through the guide cannula into the nucleus accumbens (2 mm membrane length) or prefrontal cortex (4 mm membrane length). The Inlet of the probe is connected with low volume tubing (F.E.B-tubing, 1.2 μl/10 cm, Carnegie) via a liquid-swivel (dual channel; Instech, UK) on a counterbalanced arm, to a syringe-pump (Harvard, 10 channel). […] The outlet of the probe is connected with low volume tubing via the liquid swivel to a CMA 140 fraction collector. The tubing is supported by a stainless steel wire which leads from the swivel down to a clip, which fits to a collar around the neck of an animal. […] Samples are collected at a flow rate of 2 μl/min at 20 min intervals (40 μl volume) in vials containing 50 μl of a HCOOH/cysteine solution (0.02M/0.2 w/v %) to prevent oxidation of the compounds. Following a baseline period of 5 samples, drugs are administered systemically and at least a further 8 samples collected. All samples were stored post-collection on dry ice and frozen at […] prior to analysis by high-performance liquid chromatography (HPLC) coupled to electrochemical detection described below.
(§5) Analysis of dialysate dopamine and serotonin. […] The final pH was adjusted to 4.9 with 1N NaOH. Dopamine and serotonin are electrochemically detected with an EG&G (model 400, Princeton Applied Research) controller equipped with a glassy carbon working electrode (VT-03; Antec, Leiden, the Netherlands). The potential is set at 600 mV versus an Ag/AgCl reference electrode. The output is recorded on a computer equipped with Hyperchem™ (Hewlett-Packard Inc.) which measures peak height values. Calculations (μg/20 min) are made using peak height values of analysed standard solutions containing known amounts of dopamine and serotonin. Analysis of dialysate dopamine and noradrenaline. […] The basal mobile phase consists of: 50 mM NaAc, and 0.27 mM EDTA. The final concentration of 1-octanesulfonic acid (NOS) and methanol, as well as the final pH (adjusted with HAc), vary with the different brain areas under examination. The compounds are electrochemically detected with an EG&G (model 400, Princeton Applied Research) controller equipped with a glassy carbon working electrode (VT-03; Antec, Leiden, the Netherlands). The potential is set at 450 mV versus a Hyref reference electrode.

[2] = test system: noradrenaline levels in the prefrontal cortex; assay: In vivo microdialysis, dialysate noradrenaline; details: awake freely moving rat, p.o. or i.p. (italic)
Description: as §1, §2, §3
Microdialysis experimentation. On the day of the experiment microdialysis probes (CMA 12, 0.5 mm outer diameter, Stockholm, Sweden) are inserted through the guide cannula into the nucleus accumbens (2 mm membrane length) or prefrontal cortex (4 mm membrane length). The Inlet of the probe is connected with low volume tubing (F.E.B-tubing, 1.2 μl/10 cm, Carnegie) via a liquid-swivel (dual channel; Instech, UK) on a counterbalanced arm, to a syringe-pump (Harvard, 10 channel). […] The outlet of the probe is connected with low volume tubing via the liquid swivel to a CMA 140 fraction collector. […]
Analysis of dialysate dopamine and serotonin. […] Dopamine and serotonin are electrochemically detected with an EG&G (model 400, Princeton Applied Research) controller equipped with a glassy carbon working electrode (VT-03; Antec, Leiden, the Netherlands). […] The output is recorded on a computer equipped with Hyperchem™ (Hewlett-Packard Inc.) which measures peak height values. Calculations (μg/20 min) are made using peak height values of analysed standard solutions containing known amounts of dopamine and serotonin. […] The compounds are electrochemically detected with an EG&G (model 400, Princeton Applied Research) controller equipped with a glassy carbon working electrode (VT-03; Antec, Leiden, the Netherlands). […]

[3] = test system: dialysate dopamine in the nucleus accumbens; assay: In vivo microdialysis, dialysate dopamine; parameters: species or system rat; details: read-out: [dopamine] ED75
Description: as §1, §2, §3, §4, §5

[4] = molecular target: T1, serotonin reuptake sites (Rattus norvegicus, UniProt P31652); assay: In vitro functional inhibition of [3H]-serotonin reuptake in rat brain synaptosomes; format: biochemical
T1 construct: the cerebral hemispheres were rapidly removed and a P2-synaptosomal fraction was prepared; from tissue; host or cells: rat (Wistar) cerebral hemispheres, P2-synaptosomal fraction
T1 sequence (P31652 whole entry): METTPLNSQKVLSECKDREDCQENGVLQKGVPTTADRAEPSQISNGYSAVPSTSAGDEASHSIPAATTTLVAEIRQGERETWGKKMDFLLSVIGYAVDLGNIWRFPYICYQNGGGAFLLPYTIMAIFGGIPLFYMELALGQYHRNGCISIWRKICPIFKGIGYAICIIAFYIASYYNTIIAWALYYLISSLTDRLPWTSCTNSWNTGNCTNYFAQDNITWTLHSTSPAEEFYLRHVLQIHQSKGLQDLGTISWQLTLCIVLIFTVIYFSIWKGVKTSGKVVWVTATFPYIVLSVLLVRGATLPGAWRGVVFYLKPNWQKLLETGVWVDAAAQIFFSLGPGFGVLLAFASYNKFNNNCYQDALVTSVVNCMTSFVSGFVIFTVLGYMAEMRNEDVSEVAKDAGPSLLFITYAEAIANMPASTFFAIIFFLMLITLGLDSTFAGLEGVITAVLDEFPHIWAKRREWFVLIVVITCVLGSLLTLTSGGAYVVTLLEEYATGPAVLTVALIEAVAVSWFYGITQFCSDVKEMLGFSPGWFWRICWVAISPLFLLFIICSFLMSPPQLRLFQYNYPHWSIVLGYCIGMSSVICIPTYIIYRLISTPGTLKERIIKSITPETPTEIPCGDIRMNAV
Description: (§6) The in vitro functional activity at dopamine-D2 receptors, Including the intrinsic activity (ε) of the compounds which can be used according to the invention as well as relevant reference compounds was measured by their ability to inhibit forskolin-induced [^3H]cAMP accumulation. Serotonin and noradrenaline reuptake inhibitory activity was measured In rat brain synaptosomes.
In Vitro Functional Inhibition of [^3H]-serotonin Reuptake
Synaptosomes were pre-incubated in absence or presence of the test compound for 15 min at 37° C., in a medium containing the monoamine oxidase inhibitor pargyline (7 μM). Subsequently, the synaptosomes were exposed to [^3H]-serotonin ([…] final concentration) for 10 min.
[^3H]-serotonine uptake was stopped by filtration with a harvester and the non-incorporated radioactivity was removed by an extensive washing programme. The filter plates with synaptosomes were dehydrated and the amount of [^3H]-serotonin present was determined by Betaplate liquid scintillation counting.

[5] = molecular target: noradrenaline reuptake sites (Rattus norvegicus, UniProt Q9WTR4); assay: In vitro functional inhibition of [3H]-noradrenalin reuptake in rat hypothalamus synaptosomes; format: biochemical
Description: as §6
Synaptosomes were pre-incubated in absence or presence of the test compound for 10 min at 37° C., in a medium containing the monoamine oxidase inhibitor pargyline (7 μM). Subsequently, the synaptosomes were exposed to [^3H]-noradrenaline ([…] final concentration) for 15 min.
[^3H]-noradrenaline uptake was stopped by filtration with a harvester and the non-incorporated radioactivity was removed by an extensive washing programme. The filter plates with synaptosomes were dehydrated and the amount of [^3H]-noradrenaline present was determined by Betaplate liquid scintillation counting.

[6] = molecular target: human dopamine D2,L receptors (Homo sapiens, UniProt P14416); assay: Inhibition of forskolin-induced [3H]-cAMP accumulation in CHO-K1 cells
human dopamine D2,L receptors, sequence (P14416 whole entry): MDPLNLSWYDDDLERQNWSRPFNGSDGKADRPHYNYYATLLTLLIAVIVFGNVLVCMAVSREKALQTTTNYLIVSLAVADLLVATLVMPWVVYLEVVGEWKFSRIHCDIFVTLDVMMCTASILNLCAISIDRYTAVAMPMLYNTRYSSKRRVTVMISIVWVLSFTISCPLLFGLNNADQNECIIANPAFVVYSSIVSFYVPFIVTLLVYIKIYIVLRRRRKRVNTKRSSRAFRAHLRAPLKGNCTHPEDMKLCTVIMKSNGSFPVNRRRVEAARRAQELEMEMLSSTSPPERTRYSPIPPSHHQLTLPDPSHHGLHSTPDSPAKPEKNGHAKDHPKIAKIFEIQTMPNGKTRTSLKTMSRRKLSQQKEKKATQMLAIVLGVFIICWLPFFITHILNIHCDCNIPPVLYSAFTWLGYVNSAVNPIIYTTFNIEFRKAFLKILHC

[7] = nucleus accumbens, awake freely moving rat, p.o. or i.p. (italic)
[8] = rat brain synaptosomes, read-out: 5-HT uptake pIC50 (converted)
[9] = fraction of full agonism (ε = 1, quinpirole)

Row | Structure (SMILES) | ED75 [3, 7] [mg/kg] | IC50 [4, 8] [nM] | NA uptake pIC50 ([5]; rat hypothalamus synaptosomes) | EC50 [6] [nM] | ED150 [1] [mg/kg] | cAMP accum. ε (intrinsic activity) [6] | cAMP accum. ε (intrinsic activity) [6, 9] | further results
1 | CN1CCN(c2cccc3[nH]c(=O)oc23)CC1 [SLV 308] | 0.04 | > 10000 | <5.0 | 31.6 | – | – | – | [serotonin] ED75 (footnote 1) [1]: 0.45^1 mg/kg; [noradren] ED150 [2]: 0.53 mg/kg; EC50 ([6]; pEC50 (inhibition of cAMP formation)): 10 nM
2 | CCN(CC)C(=O)C1(c2ccccc2)CC1CN (stereo not drawn) [milnacipran] | > 30 | – | – | > 1000 | 5.5 | 0.21 | – | [noradren] ED150 [2]: 2.41 mg/kg; IC50 [4]: 251 nM; NA uptake pIC50 [5]: 5.5
3 | O=c1[nH]c2cccc(N3CCN(CCCc4c[nH]c5ccc(F)cc45)CC3)c2o1 [example 1c] | 3.92 | 25.1 | <5.0 | 158 | 14.8 | – | 0.53 | –
4 | CCOc1ccccc1OC(c1ccccc1)C1CNCCO1 (stereo not drawn) [reboxetine] | > 3 | – | – | – | > 3 | – | – | [noradren] ED150 [2]: <3.0 mg/kg
5 | O=c1[nH]c2cccc(N3CCN(CCCc4c[nH]c5ccccc45)CC3)c2o1 [example 1e] | – | 251 | <5.0 | < 1 | – | – | 0.60 | –
6 | COCCCC/C(=N\OCCN)c1ccc(C(F)(F)F)cc1 [fluvoxamine] | – | – | 5.3 | > 1000 | – | – | 0.10 | –
7 | O=c1[nH]c2cccc(N3CCN(Cc4cccc(-c5ccccc5)c4)CC3)c2o1 [bifeprunox] | – | 15800 | 4.6 | 15.8 | – | 0.20 | – | [serotonin] ED75 (footnote 1) [1]: >10^1 mg/kg; ED75 ([3]; Rattus norvegicus): > 10 mg/kg
8 | CCN(CC)C(=O)N[C@H]1C[C@@H]2c3cccc4[nH]cc(c34)C[C@H]2N(C)C1 [terguride] | > 10 | > 10000 | <5.0 | 0.398 | > 10 | – | 0.38 | agonist properties at human dopamine D2 receptors (FIG. 2 upper panel) ([6]; agonist mode): partial agonists; antagonist effects against the reference agonist quinpirole (FIG. 2 lower panel) ([6]; antagonist mode versus quinpirole): partial antagonists
9 | CCCN1CCC[C@@H]2Cc3n[nH]cc3C[C@H]21 [quinpirole] | 0.04 | – | – | – | > 3 | – | – | –
10 | Fc1ccc([C@@H]2CCNC[C@H]2COc2ccc3c(c2)OCO3)cc1 [paroxetine] | > 10 | – | – | > 1000 | < 10 | 0.36 | – | NA uptake pIC50 [5]: <5.0
11 | CCCN1CCC[C@@H](c2cccc(O)c2)C1 [preclamol] | 14.5 | > 10000 | 5.3 | – | > 30 | – | 0.36 | –
12 | Cc1cccc2c(CCCN3CCN(c4cccc5[nH]c(=O)oc45)CC3)c[nH]c12 [example 1d] | – | 398 | <5.0 | < 1 | – | – | 0.56 | –
13 | Cn1cc(CCCN2CCN(c3cccc4[nH]c(=O)oc34)CC2)c2cc(F)ccc21 [example 1a] | 8.14 | 126 | <5.0 | > 1000 | 2.52 | – | 0.27 | –
14 | C=CCN1CCc2nc(N)sc2CC1 [talipexole] | < 0.1 | – | – | 39.8 | > 10 | 1.00 | – | IC50 [4]: > 10000 nM; NA uptake pIC50 [5]: <5.0; agonist properties at human dopamine D2 receptors (FIG. 2 upper panel) [6]: full agonists
15 | CNCCCN1c2ccccc2CCc2ccccc21 [DMI] | > 3 | – | – | > 1000 | > 3 | 0.12 | – | [noradren] ED150 [2]: 1.64 mg/kg
16 | O=c1[nH]c2cccc(N3CCN(CCCc4cn5c6c(cc(F)cc46)CCC5)CC3)c2o1 [example 1b] | – | > 10000 | 5.2 | – | – | – | 0.27 | –

— patent publication US20050038015A1, “Partial dopamine-D 2 receptor agonist plus serotonin and/oder noradrenaline inhibitor activity” (priority 2002, published 2005)
